Experiment in all cases: NCI tumour cell line growth inhibition, 48 h
Assay [1] deals with DLD-1 colon.
Assay [2] concerns HOP-18 NSCLC.
In assay [3] the test system is KM20L2 colon.
In assay [4] the test system is LXFL 529 NSCLC.
Assay [5] concerns XF 498 CNS.
Assay [6] has as its system RXF-631 renal.
Assay [7] concerns MCF7 breast.
The test system of assay [8] is P388 leukemia.
The subject of assay [9] is P388/ADR leukemia.
The test system of assay [10] is SN12K1 renal.

SMILES strings stand for the structures.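 Following 48 hours of exposure in 96-well plates, responses at five concentrations were used to interpolate endpoints linearly. Here, GI50 denotes the concentration required for 50% inhibition of growth. TGI denotes the concentration required for complete inhibition of growth.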

Turning to `CCC(C)CN1C(=O)NC(C)(Cc2ccccc2)C1=O` (stereo not given), the TGI in assay [1], in assay [2], in assay [3], in [4] and in [5] was above 100 µM in each case.

For `O=C(NCCCCCCCCNC(=O)c1cnc2ccccc2n1)c1cnc2ccccc2n1`, the TGI in assay [1], in [2], in [4] and in assay [5] was above 100 µM throughout.

With `N#Cc1cccc(N2C(=O)c3c(c(-c4ccccc4)c(-c4ccc(Sc5ccc(-c6c(-c7ccccc7)c7c(c(-c8ccccc8)c6-c6ccccc6)C(=O)N(c6cccc(C#N)c6)C7=O)cc5)cc4)c(-c4ccccc4)c3-c3ccccc3)C2=O)c1`, the TGI in [1] was above 100 µM; in assay [3] it was above 100 µM; in assay [4] it was above 100 µM; in assay [6] it was above 100 µM; in [5], 85 µM.

Take `N=C(c1ccccc1)N(c1ccccc1)c1ccccc1`: the TGI in assay [1] is above 100 µM; in assay [2], 13.1 µM; in assay [3], above 100 µM; in assay [4] it was above 100 µM.

Regarding `CC1=C(C(=O)NCc2ccccc2)C(c2ccc(C3C(C(=O)NCc4ccccc4)=C(C)NC(C)=C3C(=O)NCc3ccccc3)cc2)C(C(=O)NCc2ccccc2)=C(C)N1`, the TGI was 13.1 µM in assay [1]; 52.7 µM in assay [2]; 29 µM in assay [3]; 15.5 µM in assay [4]; 31.1 µM in assay [5].

For `CCOc1ccc(NC(=O)CC2SC(=Nc3ccc(Cl)cc3)NC2=O)cc1` (stereo not given), the TGI in assay [1], in [2], in assay [3], in [4], in [6] and in assay [5] was above 100 µM in each case.

For the compound `CC[P+](C)(Cc1ccccc1)c1ccccc1` (stereo not given), the TGI in assay [1], in assay [2], in assay [3], in [4] and in assay [5] was above 100 µM each time.

For the compound `O=C(O)c1ccccc1Cc1ccco1`, the TGI in assay [1], in [2], in assay [3] and in assay [4] was above 100 µM each time.

Consider `CN(C)c1ccc2c(c1)C(=O)N(OS(=O)(=O)c1ccc([N+](=O)[O-])cc1)C2=O`, for which the TGI in [1] is 86.8 µM; in [2], above 100 µM; in assay [4] it was 37 µM; in assay [6] it was 47.1 µM; in assay [5], 35.1 µM.

Consider `Cc1cccc(C(=O)c2cccc3ccccc23)c1C(=O)O`, for which the TGI in assay [1], in [2], in assay [3], in assay [4], in assay [6] and in assay [5] was above 100 µM each time.

Regarding `c1ccc(SC2(Sc3ccccc3)CCCC2)cc1`, the TGI in assay [1], in assay [3], in assay [6] and in assay [5] was above 100 µM throughout.

As to `CCCCCCCCCCCOC(=S)NC(C)C`, the TGI in assay [1] stood at 49 µM; in [2], 88.5 µM; in [3] it was 30.2 µM; in assay [4] it was 85.4 µM; in assay [5], 30.9 µM.

For `Cc1ccc(C(=O)O/N=C2/CCCC/C2=C\c2ccccc2)cc1`, the TGI was above 100 µM in assay [1]; above 100 µM in assay [2]; above 100 µM in assay [3]; 30.9 µM in assay [4]; above 100 µM in assay [5].

For `Nc1nc(CCC(=O)Nc2cccc(C(F)(F)F)c2)cc(-c2cccc3ccccc23)n1`, the TGI in assay [1], in assay [2], in assay [3], in assay [4], in [6] and in [5] was above 100 µM each time.

Consider `CCC[CH2][Sn]([CH2]CCC)([O]C(=O)c1c(F)cccc1F)[O]C(=O)c1c(F)cccc1F`, for which the GI50 in assay [1] was 0.624 µM; in [2], 1.89 µM; in assay [3], 1.61 µM; in assay [4], 0.139 µM; in assay [5] it was 1.31 µM. Further, the TGI in assay [1] was found to be 1.91 µM; in assay [2], 3.3 µM; in assay [3], 2.98 µM; in [4], 0.318 µM; in assay [5], 2.59 µM.

In the case of `CCOc1ccccc1NC(=O)CCC(=O)OC`, the TGI in [1], in [2], in assay [3], in assay [4] and in [5] was above 100 µM each time.

Consider `CC1=CC2CC(C)=C(CC[C@]3(C)CC[C@H]([C@@H](C)C(=O)O)OO3)C(C)(C)C2CC1` (stereo not given in full), for which the TGI was found to be 0.426 µM in [1]; 1.45 µM in assay [2]; 2.63 µM in assay [3]; 0.414 µM in assay [4]; 2.95 µM in assay [6]; 0.768 µM in assay [5].

For `COc1cc(CCc2cccnc2)cc(OC)c1OC`, the TGI in assay [1], in assay [2], in [3] and in assay [4] was above 100 µM in each case.

Consider `NNC(=S)N/N=C(\CCCC(=O)NCCc1ccccc1)CC(=O)c1ccccc1`, for which the TGI in [1], in assay [2], in assay [3] and in assay [4] was above 100 µM throughout.

As to `O=C(CC1=Nc2nnc(-c3nnc4n3C(=O)C(CC(=O)c3cccnc3)=N4)n2C1=O)c1cccnc1`, the TGI in assay [1], in assay [3], in assay [4] and in assay [6] was above 100 µM in each case.

On to `O=C1c2ccccc2C2(O)Nc3cc(O)ccc3C12O` (stereo not given), for which the TGI in [1], in assay [2], in assay [3], in assay [4] and in assay [6] was above 100 µM throughout.

As to `O=C1OC(=O)c2c1c(-c1ccccc1)cn2-c1ccc(Cl)cc1`, the TGI in assay [1], in assay [2], in [3], in assay [4], in assay [6] and in assay [5] was above 100 µM in each case.

As to `O=C(O)CN(c1ccccc1)S(=O)(=O)c1ccc(NC(=O)c2ccccc2)cc1`, the TGI in assay [1], in [2], in assay [3], in assay [4] and in assay [5] was above 100 µM in each case.

With `CC1[C@@H]2[C@@H](C=C3C4CCC5Cc6nc7c(nc6C[C@@]5(C)C4C[C@H](O)[C@]32CO)CC2CCC3C4=C[C@H]5O[C@@]6(O[C@@](C)(CO)C[C@@H]6O)C(C)[C@@]5(O)[C@]4(C)[C@@H](O)CC3[C@]2(C)C7)O[C@]12CCC(C)(C)O2` (stereo not given in full), the GI50 was 0.583 µM in assay [1], 2.08 µM in assay [2], 0.00719 µM in assay [3] and below 0.000365 µM in [5]. The TGI was above 3.65 µM in [1]; above 3.65 µM in [2]; 0.619 µM in assay [3]; 0.0713 µM in [4]; 0.505 µM in assay [7]; above 3.65 µM in assay [8]. Moreover, the TGI in [9] and in assay [10] was above 3.65 µM throughout.

The values above are taken from PubChem BioAssay (NCI).
